This note sets out measurements from paper PMC8711236 (Biochemistry, 2021).

In the assay the target is Cytochrome P450 3A4 (CYP3A4) (Homo sapiens, UniProt P08684). Description: UV-vis spectral equilibrium titration. The format is binding.

Structures are written as SMILES.

The term Kd denotes the concentration at which binding is half-saturated. Low readings indicate tighter binding, high ones weaker binding.

Cytochrome P450 3A4 (CYP3A4), sequence (P08684 14-503): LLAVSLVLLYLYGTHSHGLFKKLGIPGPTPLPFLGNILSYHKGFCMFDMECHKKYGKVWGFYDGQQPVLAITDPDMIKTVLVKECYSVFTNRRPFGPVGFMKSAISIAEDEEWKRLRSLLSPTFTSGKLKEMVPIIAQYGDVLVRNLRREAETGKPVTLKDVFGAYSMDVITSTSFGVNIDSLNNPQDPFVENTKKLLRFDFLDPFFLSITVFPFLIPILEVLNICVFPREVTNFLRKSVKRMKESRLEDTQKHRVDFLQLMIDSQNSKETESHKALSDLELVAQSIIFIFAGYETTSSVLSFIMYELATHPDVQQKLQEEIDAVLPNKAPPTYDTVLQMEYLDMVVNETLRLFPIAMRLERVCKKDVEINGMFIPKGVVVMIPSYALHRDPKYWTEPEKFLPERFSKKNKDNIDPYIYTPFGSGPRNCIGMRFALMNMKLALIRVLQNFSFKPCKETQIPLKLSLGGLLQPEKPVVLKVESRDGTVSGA
Cytochrome P450 3A4 (CYP3A4), sequence (P00388 2-678 partner): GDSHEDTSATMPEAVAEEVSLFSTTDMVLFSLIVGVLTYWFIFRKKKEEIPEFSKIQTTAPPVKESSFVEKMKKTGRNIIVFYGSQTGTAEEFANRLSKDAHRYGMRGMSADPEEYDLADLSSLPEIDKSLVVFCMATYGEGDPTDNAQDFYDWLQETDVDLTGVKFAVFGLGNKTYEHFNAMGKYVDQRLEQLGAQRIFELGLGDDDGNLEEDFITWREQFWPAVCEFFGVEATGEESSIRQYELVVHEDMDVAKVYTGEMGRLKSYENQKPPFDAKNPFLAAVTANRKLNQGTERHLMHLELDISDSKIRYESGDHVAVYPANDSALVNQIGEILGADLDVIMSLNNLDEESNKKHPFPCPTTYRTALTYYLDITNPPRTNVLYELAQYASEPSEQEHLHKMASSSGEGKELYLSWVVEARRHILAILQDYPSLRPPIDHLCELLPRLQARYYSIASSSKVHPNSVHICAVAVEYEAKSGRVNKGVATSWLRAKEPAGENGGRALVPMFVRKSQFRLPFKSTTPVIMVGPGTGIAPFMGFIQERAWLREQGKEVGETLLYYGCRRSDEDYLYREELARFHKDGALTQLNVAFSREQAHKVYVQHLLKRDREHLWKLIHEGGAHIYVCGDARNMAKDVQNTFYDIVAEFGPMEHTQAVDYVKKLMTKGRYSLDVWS

On to `CC(=O)[C@H]1CC[C@H]2[C@@H]3CCC4=CC(=O)CC[C@]4(C)[C@H]3CC[C@]12C` [PRG, progesterone], for which the Kd was 35 µM. This counts as double-digit micromolar.
